Data: patent US9670227B2, “Thienopyrimidine derivatives, a process for their preparation and pharmaceutical compositions containing them” (LES LABORATOIRES SERVIER, priority 2013, dated 2017)
Like-named read-outs stand apart in the source and are kept apart here.

Biological target: Mcl-1 protein (UniProtKB primary accession number: Q07820) (Homo sapiens, UniProt Q07820)
Assay: Inhibition of Mcl-1 by fluorescence polarisation, Method 1
Type: binding
Conditions: for IC50: read-out: IC50 (M) Mcl-1 FP; for percentage fluorescence polarisation inhibition, Mcl-1 FP: partial inhibitors, @ 10 uM test compound
Outline: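 Binding was measured as fluorescence polarisation of a fluorescein-labelled ligand (1 nM) displaced from Mcl-1 (5 nM), both final. Compounds ran as 11-point series with final DMSO at 5%.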

[1] = fluorescence polarisation, Method 1, or Method 2
[2] = fluorescence polarisation test, Method 1, or Method 2 where the value is underlined (underlining not visible)
[3] = fluorescence polarisation test, Method 2 values are underlined in the patent (underlining not visible here)

Mcl-1 protein, sequence (Q07820 whole entry): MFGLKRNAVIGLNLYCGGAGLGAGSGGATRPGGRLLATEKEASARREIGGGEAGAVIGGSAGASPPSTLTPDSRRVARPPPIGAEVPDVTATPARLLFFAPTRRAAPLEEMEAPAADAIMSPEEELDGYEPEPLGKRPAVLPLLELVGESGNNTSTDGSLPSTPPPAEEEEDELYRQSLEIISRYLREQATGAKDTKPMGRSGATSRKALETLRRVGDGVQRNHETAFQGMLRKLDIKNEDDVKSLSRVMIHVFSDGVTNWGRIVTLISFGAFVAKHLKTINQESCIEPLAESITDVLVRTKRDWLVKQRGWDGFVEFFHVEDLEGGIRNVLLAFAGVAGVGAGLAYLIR

Cc1c(-c2c(-c3ccco3)sc3ncnc(OC(Cc4ccccc4OCc4ccccn4)C(=O)O)c23)ccc(O)c1Cl [Example 674, (2R)-2-{[(5Sa)-5-(3-chloro-4-hydroxy-2-methylphenyl)-6-(furan-2-yl)thieno[2,3-d]pyrimidin-4-yl]oxy}-3-[2-(pyridin-2-ylmethoxy)phenyl]propanoic acid]
IC50 [1]: 2.1e-08 M

COCCOC(=O)C(Cc1ccccc1OCc1ccnc(-c2ccccc2OCCOC)n1)Oc1ncnc2sc(-c3ccc(F)cc3)c(-c3ccc(OCCN(C)C)c(Cl)c3C)c12 [Example 800, 2-methoxyethyl (2R)-2-{[(5Sa)-5-{3-chloro-4-[2-(dimethylamino)ethoxy]-2-methylphenyl}-6-(4-fluorophenyl)thieno[2,3-d]pyrimidin-4-yl]oxy}-3-[2-({2-[2-(2-methoxyethoxy)phenyl]pyrimidin-4-yl}methoxy)phenyl]propanoate]
IC50 [2]: 1.39e-06 M

CCOC(=O)C(Cc1ccccc1OCc1ccnc(-c2ccccc2CO)n1)Oc1ncnc2sc(-c3ccc(F)cc3)c(-c3ccc(OCCN4CCN(C)CC4)c(Cl)c3C)c12 [Example 856, ethyl (2R)-2-{[(5Sa)-5-{3-chloro-2-methyl-4-[2-(4-methylpiperazin-1-yl)ethoxy]phenyl}-6-(4-fluorophenyl)thieno[2,3-d]pyrimidin-4-yl]oxy}-3-[2-({2-[2-(hydroxymethyl)phenyl]pyrimidin-4-yl}methoxy)phenyl]propanoate]
IC50 [2]: 9.79e-07 M

COc1ccccc1-c1nccc(COc2ccccc2CC(Oc2ncnc3sc(-c4ccc(F)cc4)c(-c4ccc(OCCN(C)C)c(Cl)c4C)c23)C(=O)O)n1 [Example 135, (2R)-2-{[(5Sa)-5-{3-chloro-4-[2-(dimethylamino)ethoxy]-2-methylphenyl}-6-(4-fluorophenyl)thieno[2,3-d]pyrimidin-4-yl]oxy}-3-(2-{[2-(2-methoxyphenyl)pyrimidin-4-yl]methoxy}phenyl)propanoic acid]
IC50 [3]: 8.6e-09 M

COc1ccccc1CC(Oc1ncnc2sc(-c3ccco3)c(-c3ccc(OC4CCCCN(C)C4)c(Cl)c3C)c12)C(=O)O (single isomer, unassigned) [Example 300, (2R)-2-{[(5Sa)-5-{3-chloro-2-methyl-4-[(3R or S)-(1-methylazepan-3-yl)oxy]phenyl}-6-(furan-2-yl)thieno[2,3-d]pyrimidin-4-yl]oxy}-3-(2-methoxyphenyl)propanoic acid]
IC50 [3]: 3.7e-08 M

CCc1sc2ncnc(O[C@H](Cc3ccccc3)C(=O)O)c2c1-c1cc2cc(CN(C)C)oc2c(Cl)c1C [Example 442, (2R)-2-[((5Sa)-5-{7-chloro-2-[(dimethylamino)methyl]-6-methyl-1-benzofuran-5-yl}-6-ethylthieno[2,3-d]pyrimidin-4-yl)oxy]-3-phenylpropanoic acid]
IC50 [1]: 1.1e-07 M

Cc1c(-c2c(-c3cccc(F)c3F)sc3ncnc(OC(Cc4ccccc4OCc4ccnn4C(C)(C)C)C(=O)OCC(=O)N(C)C)c23)ccc(OCCN(C)C)c1Cl [Example 825, 2-(dimethylamino)-2-oxoethyl (2R)-3-{2-[(1-tert-butyl-1H-pyrazol-5-yl)methoxy]phenyl}-2-{[(5Sa)-5-{3-chloro-4-[2-(dimethylamino)ethoxy]-2-methylphenyl}-6-(2,3-difluorophenyl)thieno[2,3-d]pyrimidin-4-yl]oxy}propanoate]
IC50 [2]: 5.82e-07 M

CCc1sc2ncnc(OC(Cc3ccccc3)C(=O)O)c2c1-c1ccc(OCCN2CCN(C)CC2)cc1C [Example 417, (2R)-2-[(6-ethyl-(5Sa)-5-{2-methyl-4-[2-(4-methylpiperazin-1-yl)ethoxy]phenyl}thieno[2,3-d]pyrimidin-4-yl)oxy]-3-phenylpropanoic acid]
IC50 [1]: 1.5e-07 M

CC#Cc1sc2ncnc(O[C@H](Cc3ccccc3OC)C(=O)O)c2c1-c1cc(F)c(OC)c(Cl)c1C (single isomer, unassigned) [Example 470]
IC50 [1]: 4.8e-07 M

Cc1c(-c2c(-c3ccco3)sc3ncnc(OC(Cc4ccccc4OCc4cncn4C)C(=O)O)c23)ccc(OCCN2CCN(C)CC2)c1Cl [Example 276, (2R)-2-{[(5Sa)-5-{3-chloro-2-methyl-4-[2-(4-methylpiperazin-1-yl)ethoxy]phenyl}-6-(furan-2-yl)thieno[2,3-d]pyrimidin-4-yl]oxy}-3-{2-[(1-methyl-1H-imidazol-5-yl)methoxy]phenyl}propanoic acid]
IC50 [3]: 6.2e-09 M

CC#Cc1sc2ncnc(OC(Cc3ccccc3OC)C(=O)O)c2c1-c1cc(N2CCN(C)CC2)c(OC)c(Cl)c1C [Example 473, (2R)-2-({(5Sa)-5-[3-chloro-4-methoxy-2-methyl-5-(4-methylpiperazin-1-yl)phenyl]-6-(prop-1-yn-1-yl)thieno[2,3-d]pyrimidin-4-yl}oxy)-3-(2-methoxyphenyl)propanoic acid]
IC50 [1]: 5e-08 M

COc1ccccc1CC(Oc1ncnc2sc(C(=O)N(C)C)c(-c3ccc(OCCN4CCN(C)CC4)c(Cl)c3C)c12)C(=O)O [Example 575, (2R)-2-{[(5Sa)-5-{3-chloro-2-methyl-4-[2-(4-methylpiperazin-1-yl)ethoxy]phenyl}-6-(dimethylcarbamoyl)thieno[2,3-d]pyrimidin-4-yl]oxy}-3-(2-methoxyphenyl)propanoic acid]
percentage fluorescence polarisation inhibition, Mcl-1 FP (10 µM): 46.8% @ 10 uM

Cc1c(Cl)cccc1-c1c(-c2ccco2)sc2ncnc(OC(Cc3ccccc3OCCN3CCN(C)CC3)C(=O)O)c12 [Example 666, (2R)-2-{[(5Sa)-5-(3-chloro-2-methylphenyl)-6-(furan-2-yl)thieno[2,3-d]pyrimidin-4-yl]oxy}-3-{2-[2-(4-methylpiperazin-1-yl)ethoxy]phenyl}propanoic acid]
IC50 [1]: 7.7e-08 M

CC#Cc1sc2ncnc(OC(Cc3ccccc3OCc3ccnn3C(C)(C)C)C(=O)OCC)c2c1-c1ccc(OCCN2CCN(C)CC2)c(Cl)c1C [Example 792, ethyl (2R)-3-{2-[(1-tert-butyl-1H-pyrazol-5-yl)methoxy]phenyl}-2-{[(5Sa)-5-{3-chloro-2-methyl-4-[2-(4-methylpiperazin-1-yl)ethoxy]phenyl}-6-(prop-1-yn-1-yl)thieno[2,3-d]pyrimidin-4-yl]oxy}propanoate]
IC50 [1]: 6.44e-06 M

Cc1c(-c2c(-c3ccc(F)cc3)sc3ncnc(OC(Cc4ccccc4OCc4ccnc(-c5ccccc5F)n4)C(=O)OCC(=O)N(C)C)c23)ccc(OCCN2CCN(C)CC2)c1Cl [Example 816, 2-(dimethylamino)-2-oxoethyl (2R)-2-{[(5Sa)-5-{3-chloro-2-methyl-4-[2-(4-methylpiperazin-1-yl)ethoxy]phenyl}-6-(4-fluorophenyl)thieno[2,3-d]pyrimidin-4-yl]oxy}-3-(2-{[2-(2-fluorophenyl)pyrimidin-4-yl]methoxy}phenyl)propanoate]
IC50 [2]: 1.72e-07 M

CCc1sc2ncnc(OC(Cc3ccccc3)C(=O)O)c2c1-c1cc(Cl)c(O)cc1C [Example 439, (2R)-2-{[(5Ra)-5-(5-chloro-4-hydroxy-2-methylphenyl)-6-ethylthieno[2,3-d]pyrimidin-4-yl]oxy}-3-phenylpropanoic acid]
IC50 [1]: 2.5e-07 M

COc1ccccc1CC(Oc1ncnc2sc(-c3ccc(F)o3)c(-c3ccc(OCCN4CCN(C)CC4)c(Cl)c3C)c12)C(=O)O [Example 149, (2R)-2-{[(5Sa)-5-{3-chloro-2-methyl-4-[2-(4-methylpiperazin-1-yl)ethoxy]phenyl}-6-(5-fluorofuran-2-yl)thieno[2,3-d]pyrimidin-4-yl]oxy}-3-(2-methoxyphenyl)propanoic acid]
IC50 [3]: 1.2e-08 M

Cc1c(-c2c(-c3ccc(F)cc3)sc3ncnc(OC(Cc4ccccc4OCc4cnccn4)C(=O)O)c23)ccc(OCCN2CCN(C)CC2)c1Cl [Example 91, (2R)-2-{[(5Sa)-5-{3-chloro-2-methyl-4-[2-(4-methylpiperazin-1-yl)ethoxy]phenyl}-6-(4-fluorophenyl)thieno[2,3-d]pyrimidin-4-yl]oxy}-3-[2-(pyrazin-2-ylmethoxy)phenyl]propanoic acid]
IC50 [3]: 7.3e-09 M

Cc1c(-c2c(-c3ccc(F)cc3)sc3ncnc(OC(Cc4ccccc4OCc4ccnn4C(C)(C)C)C(=O)OCOC(=O)C(C)(C)C)c23)ccc(OCCN(C)C)c1Cl [Example 821, {[(2R)-3-{2-[(1-tert-butyl-1H-pyrazol-5-yl)methoxy]phenyl}-2-{[(5Sa)-5-{3-chloro-4-[2-(dimethylamino)ethoxy]-2-methylphenyl}-6-(4-fluorophenyl)thieno[2,3-d]pyrimidin-4-yl]oxy}propanoyl]oxy}methyl 2,2-dimethylpropanoate]
IC50 [2]: 3.61e-07 M

COc1ccccc1C[C@@H](Oc1ncnc2sc(-c3ccc(F)cc3)c(-c3ccc(OCCN4CCN(C)CC4)c(Cl)c3C)c12)C(=O)Oc1ccc2c(c1)CCC2 [Example 640, 2,3-dihydro-1H-inden-5-yl (2R)-2-{[(5Sa)-5-{3-chloro-2-methyl-4-[2-(4-methylpiperazin-1-yl)ethoxy]phenyl}-6-(4-fluorophenyl)thieno[2,3-d]pyrimidin-4-yl]oxy}-3-(2-methoxyphenyl)propanoate]
percentage fluorescence polarisation inhibition, Mcl-1 FP: 42.4% @ 10 uM

Cc1c(-c2c(-c3ccc(F)cc3)sc3ncnc(OC(Cc4ccccc4OCc4ccccn4)C(=O)O)c23)ccc(OCCN2CCN(C)CC2)c1Cl [Example 14, (2R)-2-{[(5Sa)-5-{3-chloro-2-methyl-4-[2-(4-methylpiperazin-1-yl)ethoxy]phenyl}-6-(4-fluorophenyl)thieno[2,3-d]pyrimidin-4-yl]oxy}-3-[2-(pyridin-2-ylmethoxy)phenyl]propanoic acid]
IC50 [3]: 1.3e-08 M

Cc1c(-c2c(-c3ccc(F)cc3)sc3ncnc(OC(Cc4ccccc4OCc4ccnc(-c5ccccc5F)n4)C(=O)OCOC(=O)C(C)(C)C)c23)ccc(OCCN2CCN(C)CC2)c1Cl [Example 854, {[(2R)-2-{[(5Sa)-5-{3-chloro-2-methyl-4-[2-(4-methylpiperazin-1-yl)ethoxy]phenyl}-6-(4-fluorophenyl)thieno[2,3-d]pyrimidin-4-yl]oxy}-3-(2-{[2-(2-fluorophenyl)pyrimidin-4-yl]methoxy}phenyl)propanoyl]oxy}methyl 2,2-dimethylpropanoate]
IC50 [2]: 1.72e-07 M
